In article PMC7734590, “Identification of a Selective RelA Inhibitor Based on DSE-FRET Screening Methods” (International Journal of Molecular Sciences, 2020):
Like-named read-outs stand apart in the source and are kept apart here.

Assays:
RelA [1] = molecular target: T1, RelA (Homo sapiens, UniProt Q04206); test: DSE-FRET RelA–DNA binding inhibition; format: biochemical
GST–RelA = GST–RelA (Homo sapiens, UniProt Q04206); test: SPR analysis with immobilized GST–RelA; format: binding; details: for Rmax / Kd: GST–RelA; for Kd: read-out: dissociation constant (Kd)
Sequence of GST–RelA (Q04206 19-306 limits assumed): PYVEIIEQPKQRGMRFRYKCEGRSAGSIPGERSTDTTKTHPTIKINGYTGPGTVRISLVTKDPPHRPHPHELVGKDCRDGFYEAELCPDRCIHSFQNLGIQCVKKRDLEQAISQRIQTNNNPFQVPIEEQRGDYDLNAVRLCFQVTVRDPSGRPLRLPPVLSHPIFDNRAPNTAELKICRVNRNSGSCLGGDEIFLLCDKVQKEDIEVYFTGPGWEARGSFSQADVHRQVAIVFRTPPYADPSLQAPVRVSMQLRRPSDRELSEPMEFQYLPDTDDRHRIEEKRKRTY
Procedure: (§1) SPR biosensor measurements were performed at 25 °C using a Biacore T100 instrument (GE Healthcare, Chicago, IL, USA). […] Next, 4 µg/mL GST–RelA or 5 µg/mL GST (GE Healthcare) was flowed through the channel (5 μL/min, for 180 s) and captured on the sensor chip. […] Dissociation constants were computed by fitting to a 1:1 interaction model using Biacore (GE Healthcare). Stoichiometry was calculated based on the theoretical Rmax value, where the theoretical Rmax = MWA/MWL RL SM (A, analyte; L, ligand; RL, immobilization level of ligand RU; SM, stoichiometry).

GST–p52 = molecular target: T2, GST–p52 (Homo sapiens, UniProt Q00653); test: SPR analysis with immobilized GST–p52; format: binding
T2 sequence (Q00653 1-454 limits assumed): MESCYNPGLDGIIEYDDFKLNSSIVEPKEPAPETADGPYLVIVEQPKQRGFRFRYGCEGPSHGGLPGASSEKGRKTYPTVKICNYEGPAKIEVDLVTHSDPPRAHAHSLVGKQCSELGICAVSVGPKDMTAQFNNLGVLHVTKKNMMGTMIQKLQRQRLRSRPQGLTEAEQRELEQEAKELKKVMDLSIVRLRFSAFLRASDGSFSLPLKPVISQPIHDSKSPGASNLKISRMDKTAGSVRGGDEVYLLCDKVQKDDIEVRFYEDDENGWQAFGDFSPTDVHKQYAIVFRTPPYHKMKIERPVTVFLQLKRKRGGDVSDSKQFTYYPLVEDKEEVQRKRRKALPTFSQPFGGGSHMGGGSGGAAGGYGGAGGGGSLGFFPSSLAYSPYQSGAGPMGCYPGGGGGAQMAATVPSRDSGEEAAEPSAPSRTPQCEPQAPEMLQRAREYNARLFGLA
Procedure: as §1

cRel = molecular target: T3, cRel (Homo sapiens, UniProt Q04864); test: DSE-FRET cRel–DNA binding inhibition; format: biochemical
T3 construct: GST; made in house
T3 sequence (Q04864 1-619): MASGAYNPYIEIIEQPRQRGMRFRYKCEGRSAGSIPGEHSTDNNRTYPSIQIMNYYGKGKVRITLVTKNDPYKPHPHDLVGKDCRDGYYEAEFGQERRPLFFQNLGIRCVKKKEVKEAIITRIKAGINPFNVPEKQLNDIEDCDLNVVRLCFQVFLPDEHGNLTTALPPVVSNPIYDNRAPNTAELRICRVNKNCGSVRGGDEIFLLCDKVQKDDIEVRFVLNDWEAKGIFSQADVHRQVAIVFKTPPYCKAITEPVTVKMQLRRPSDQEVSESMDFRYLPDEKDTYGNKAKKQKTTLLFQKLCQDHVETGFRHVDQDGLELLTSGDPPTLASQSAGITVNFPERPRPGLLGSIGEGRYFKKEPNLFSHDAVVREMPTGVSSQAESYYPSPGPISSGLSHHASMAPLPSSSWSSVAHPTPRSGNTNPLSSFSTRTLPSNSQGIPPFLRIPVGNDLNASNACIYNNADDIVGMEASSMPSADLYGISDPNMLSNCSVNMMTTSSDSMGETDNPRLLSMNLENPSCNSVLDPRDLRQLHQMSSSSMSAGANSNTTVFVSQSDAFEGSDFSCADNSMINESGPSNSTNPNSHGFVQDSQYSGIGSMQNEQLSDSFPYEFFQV
Procedure: Plate-based (384 scale) DNA-binding experiments were carried out with 0.1 µL of 2 mM or 1 mg/mL compound, 2 µL of 80 nM NF-D1 (consisting of NF-01F and NF-14D), 1 µL of 20 ng/µL poly dI-dC, and 6.9 µL of 3.2 pmol protein in binding buffer (10 mM 4-(2-hydroxyethyl)-1-piperazineethanesulfonic acid (HEPES)–NaOH pH 7.9, 50 mM KCl, 0.1 mM ethylenediaminetetraacetic acid (EDTA), 2.5 mM dithiothreitol (DTT), 10% glycerol, and 0.05% Nonidet P40). The plates were incubated for 30 min at room temperature, after which 10 µL of NF-D2 (consisting of NF-02 and NF-13) was added. The plates were centrifuged at 1000 rpm for 30 s, followed by shaking for 30 s using a plate shaker (Biotec). Fluorescence was measured at 528 nm, after excitation at 485 nm, using a multiplate reader (Biotec) over a period of 60 min.

PK8 cells = test: Cell viability assay (PrestoBlue), TNF-α-treated PK8 cells; format: cell-based, human; details: TNF-α 50 ng/mL, 48 h
Procedure: The human pancreatic carcinoma cell line PK8 was grown in Roswell Park Memorial Institute 1640 Medium (RPMI) (SIGMA; R8758) supplemented with 10% fetal bovine serum (FBS) at 37 °C with 5% CO2.
Cell viability was measured using the PrestoBlue assay according to the standard protocol (Thermo Fisher Scientific, Waltham, MA, USA: A13261). PK8 cells were cultivated on 96-well plates. After a 48 h treatment with TNF-α (50 ng/mL) in the presence or absence of A55, the culture medium was replaced with fresh medium containing 10% PrestoBlue and incubated for an additional 1 h at 37 °C and 5% CO2. Fluorescence intensity was then measured using a multiplate reader (EnSpire, PerkinElmer, Waltham, MA, USA).

p52 = molecular target: T4, p52 (Homo sapiens, UniProt Q00653); test: EMSA with recombinant p52; format: biochemical
T4 sequence (Q00653 1-454 limits assumed): T2 sequence (Q00653 1-454 limits assumed)

RelA [2] = molecular target: T1, RelA; test: EMSA with recombinant RelA; format: biochemical

T1 sequence (Q04206 19-306 limits assumed): as the sequence (Q04206 19-306 limits assumed) above

Cc1cc(O)n(CC(=O)O)c(=O)c1C(N)=O [A55, 2-(3-carbamoyl-6-hydroxy-4-methyl-2-oxopyridin-1(2H)-yl) acetic acid]
Hit Judgement of: RelA (RelA [1]; 2nd screening at 96 well plate, 1 = judged hit): 1 | dose–response of RelA–DNA binding inhibition (RelA [1]; 2–10 µM): inhibited RelA–DNA binding in a concentration-dependent manner | ligand efficiency (LE) (RelA [1]; 16 heavy atoms): 0.44 | RelA–DNA binding inhibition (RelA [1]; 96-well plate, in silico selected compounds): over 50% | RelA–DNA binding inhibition at 50 µM (RelA [1]; 96-well plates, 50 µM): inhibited only RelA–DNA binding | inhibition at 50 µM (RelA [1]; 96 well plate, 50 µM, 120 min-0 min, read-out: Kinetic assay @ 50 µM RelA Inhibition % ΔRFU(120 min-0 min)): 63% | IC50 (RelA [1]; DSE-FRET): 9.31 µM | Rmax (GST–RelA; 0.625–20 µM A55): 7.3 RU | Kd (GST–RelA; 0.625–20 µM A55): 2.87 µM | Rmax (GST–RelA; 3.125–100 µM A55): 4.7 RU | Kd (GST–RelA; 3.125–100 µM A55): 13 µM | Rmax GST-RelA (GST–RelA; Run 1, 100 uM - […], theoretical Rmax 4.5): 4.7 RU | Rmax GST-RelA (GST–RelA; Run 2, 20 uM - […], theoretical Rmax 5.0): 7.3 RU | Kd (GST–p52): 1.27 µM | Rmax (GST–p52; GST–p52, 3.125–100 µM A55): 11.4 RU | Rmax GST-p52 (GST–p52; Run 1, 100 uM - […], theoretical Rmax 3.4): 11.4 RU | IC50 (cRel): > 100 µM | cell proliferation / growth inhibition (PK8 cells): enhanced the growth inhibition of TNF-α-treated PK8 cells in a dose-dependent manner | EMSA inhibition of p52–DNA binding (p52): selectively inhibited the RelA–DNA binding | EMSA inhibition of RelA–DNA binding (RelA [2]): selectively inhibited the RelA–DNA binding
